Results reported in patent US20220218701A1, “COMPOSITIONS AND METHODS COMPRISING ENDOTHELIN A RECEPTOR ANTAGONISTS AND ANDROGEN THERAPIES” (priority 2019, published 2022).
Entries after “also recorded” stand apart in the source; their conditions may differ.

Legend:
[1] = Body weight and adverse effects in the ARCaPM model; assay type: in vivo, athymic nude mice
Method: Mice body weights were measured starting at 7 days post-inoculation and continued every 2-3 days until the completion of the experiment at 152 days. Two days after inoculation, mice began to receive zibotentan or vehicle control. Due to potential adverse effects in the Zibo+Castr group, the dosing was reduced to 5 days/week starting at day 59 post inoculation. Veh=vehicle control; Zibo=zibotentan; Sham=sham surgery; Castr=castration
(§1) Forty-eight HSD athymic nude male mice were obtained from Harlan Sprague Dawley (Envigo, Indianapolis, Ind.) after undergoing castration or sham surgery. At five weeks of age, mice were anesthetized using isoflurane vaporizer anesthesia. ARCaPM prostate cancer cells were washed, resuspended in PBS, and inoculated into the left cardiac ventricle at a volume of 100 μl containing 1×10^5 cells, as previously described. Starting at seven days post-inoculation, mice were weighed every 2-3 days.
(§2) Mice were anesthetized using an isoflurane vaporizer anesthetic unit and underwent radiographic imaging using a Faxitron UltraFocus 60 Digital Radiographic Unit (Faxitron, Tucson, Ariz.) every 2-4 weeks with attention paid to the appearance of sclerotic or lytic skeletal lesions.
The mice underwent radiographic imaging every 2-4 weeks to monitor for the development of bone lesions. Mice were also monitored frequently for abnormal behavior indicating the presence of a large tumor burden. Euthanasia was performed according to pre-determined humane endpoints—15% weight loss, paralysis, skeletal fractures, or any other signs of distress. Mice were weighed every 2-3 days (FIG. 3). As expected, mice in the castration groups had less weight gain compared to the sham groups, as has been reported elsewhere.

[2] = test system: ARCaPM prostate cancer cell line; assay: ARCaPM prostate cancer bone metastasis model, intracardiac inoculation, castration or sham surgery; assay type: in vivo, athymic nude mice
Method: Forty-eight male athymic nude mice either underwent castration or sham surgery at four weeks of age. At 5 weeks of age, mice were inoculated with ARCaPM prostate cancer cell line into the left cardiac ventricle. […] Two days later, mice began zibotentan 25 mg/kg/day or vehicle control by gavage.
as §1
Zibotentan is an ETAR-specific antagonist and was obtained from AstraZeneca (Cambridge, England). Zibotentan was dissolved in 1% polysorbate 80 at a concentration of 5 mg/ml. Mice in the treatment group received zibotentan 25 mg/kg/day. Mice in the vehicle control group received an equivalent volume of 1% polysorbate 80 via gavage. Gavage treatments were started two days after the intracardiac inoculations (5 weeks+2 days of age) seven days/week. The dosing scheduled was changed to five days/week at 59 days post-inoculation.
as §2
Following euthanasia, mouse femora, tibiae, humeri, spines and other bones were harvested and fixed in 10% buffered formalin for 48 hours and decalcified in Immunocal (Decal Chemical Corp, Suffern, N.Y.) for an additional 48 hours. Bones were rinsed, processed and paraffin embedded. Blocks were cut into 5 μm sections, mounted onto charged glass slides, and air-dried overnight.
Static histomorphometric analysis was performed on embedded samples stained with hematoxylin, eosin, and orange G, a bone matrix stain. Images of the samples were taken at 4× with Nikon Eclipse 90i upright microscope and Nikon HD Cooled Color Digital Camera DXM1200C paired with Nikon ACT-1C software. Each sample produced 10 to 30 tiled scans of the whole specimen and were stitched using Adobe Photoshop CC. Tumor area was traced and measured on Adobe Photoshop CC with Cintiq 22HD touch (Wacom) tablet PC and stylus. Then, measured tumor area was divided by each subject's age in days for further statistical analysis.
Forty-eight male athymic nude mice underwent castration (24 mice) or sham surgery (24 mice) at three weeks of age. At five weeks of age, ARCaPM prostate cancer cells (1×10^5 cells in 100 μl) were inoculated into the left cardiac ventricle. […] Two days later, zibotentan 25 mg/kg/day or vehicle control treatments by gavage were started. This strategy produced four experimental groups: vehicle+sham (Veh+Sham), vehicle+castrate (Veh+Castr), zibotentan+sham (Zibo+Sham), and zibotentan+castrate (Zibo+Castr) (FIG. 2).

ET-1 = assay: Serum ET-1 ELISA at euthanasia in the ARCaPM model; assay type: in vivo, mice
Method: Sera were collected at euthanasia and frozen. Thawed sera were analyzed for ET-1 concentration using ELISA in the four experimental groups and further subdivided into the presence or absence of prostate cancer lesions. Data was analyzed using two-way ANOVA. Treatment with zibotentan was a significant source of statistical variation. Blood was collected at euthanasia. Sera was collected using serum-separator centrifuge tubes (BD Microtainer®, SST, Becton Dickinson, Franklin Lakes, N.J.), and frozen at −80° C. for later analyses. ET-1 concentration was measured in thawed sera using an ET-1 colorimetric ELISA kit (R&D Systems, Minneapolis, Minn.) and a BioTek Synergy HTX plate reader (Winooski, Vt.).

metastatic CRPC = conditions: phase 2, 312 men with metastatic CRPC; increased from 17.3; cited from earlier work
[3] = Zibo + Castr group, zibotentan 25 mg/kg/day gavage
[4] = Zibo + Sham group, zibotentan 25 mg/kg/day gavage
[5] = Zibo+Sham vs Veh+Sham and Veh+Castr groups
[6] = effect of castration in zibotentan treated groups, Zibo+Castr vs. Zibo+Sham

SMILES: COc1nc(C)cnc1NS(=O)(=O)c1cccnc1-c1ccc(-c2nnco2)cc1 [zibotentan]
- body weight gain ([1]; Zibo+Castr group): lack of significant weight gain was more evident
- radiographic images, intestinal air ([1]; Zibo+Castr group): intestinal gas distension within the stomach and intestines
- mice that lost more than 15% of weight and were euthanized ([1]; Zibo+Castr group, 34 and 42 days post-inoculation, no tumor found): Two
- abdominal distension ([1]; Zibo+Castr group, within 2-4 weeks of treatment initiation): developed abdominal distension
- unintended consequences of zibotentan and castration ([1]; combination of zibotentan and castration): weight loss, diffuse gas distention within the stomach and intestines, and respiratory epithelial inflammation
- number of skeletal lesions, Left leg Prox tibia [2, 3]: 1
- number of soft tissue lesions, TOTAL [2, 3]: 0
- number of skeletal lesions, Left leg Dist femur [2, 4]: 1
- number of skeletal lesions, Left leg Prox tibia [2, 4]: 1
- number of skeletal lesions, Maxilla [2, 4]: 2
- number of skeletal lesions, Rib [2, 4]: 1
- number of skeletal lesions, Right arm Prox humerus [2, 4]: 1
- number of skeletal lesions, Right arm Prox radius [2, 4]: 1
- number of skeletal lesions, TOTAL [2, 4]: 8
- number of skeletal lesions, Thoracic spine T10 [2, 4]: 1
- number of soft tissue lesions, Adrenal Right [2, 4]: 1
- number of soft tissue lesions, Eye Left [2, 4]: 1
- number of soft tissue lesions, TOTAL [2, 4]: 2
- time to bone-specific tumor events ([2]; Zibo+Castr compared to Zibo+Sham group, p=0.0250): longer
- detectable tumor at the completion of the experiment ([2]; Zibo+Castr group, day 152): No mouse
- survival ([2]; Zibo+Castr vs Veh+Sham groups): no survival difference
- time to a tumor event (tumor-free status) ([2]; Zibo+Castr vs Zibo+Sham group, p=0.0149): significantly longer time to a tumor event
- radiographically apparent lesions at the end of the experiment ([2]; Zibo+Castr, 152 days): lack of radiographically apparent lesions
- survival (Kaplan-Meier) ([2]; Zibo+Sham group, p=0.0045): significantly shorter survival
- skeletal lesion area (histomorphometry) [2, 5]: No significant differences
- tumor area adjusted to the day post-inoculation of euthanasia [2, 5]: differences among the groups were not detected
- survival ([2]; absence of androgen, Zibo+Castr vs. Veh+Castr, p=0.0050): improved survival
- number of skeletal lesions [2, 6]: reduced the number of skeletal lesions
- survival [2, 6]: increased survival
- survival ([2]; sham-operated mice, Zibo+Sham vs. Veh+Sham, p=0.0171): decrease survival
- serum ET-1 concentration (ET-1; zibotentan-treated tumor-bearing mice vs tumor-free): trend for higher serum ET-1
- serum ET-1 concentration (ET-1; zibotentan-treated vs vehicle control mice, sera at euthanasia): significant increase; also recorded: higher
- overall survival (metastatic CRPC): 24.5 months
